Results reported in PubChem BioAssay AID248 (DTP/NCI, 2004).
Where “and” joins values, the source holds several entries; their conditions need not be identical. Equal entries are not always repeated. Toxic doses and inconclusive results are not listed. No stated cut-off is given here; in the data, active means T/C of 150% or more; inactive means T/C below 125%. Peptide text beside a SMILES is read from it. * marks the point of attachment. Cbz = O=C(OCc1ccccc1)*; OtBu = CC(C)(C)O*

Tested on: L1210 leukemia ip in BDF1 mice, survival T/C
Experiment: NCI In Vivo Anticancer Drug Screen. Data for tumor model L1210 Leukemia (intraperitoneal) in B6D2F1 (BDF1) mice
Conditions: endpoint: mean survival time, higher = longer survival
How it was run: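 Tumor was transplanted into mice, which were then dosed with test compound or vehicle alone. Survival was recorded for each group, and the treated figure was expressed relative to the control figure.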

[1] = dose: 100.0 mg/kg/injection, schedule: Q01DX001 (ip), vehicle: Klucel (hydroxypropylcellulose) (HPC)
[2] = dose: 100.0 mg/kg/injection, schedule: Q04DX003 (ip), vehicle: Klucel (hydroxypropylcellulose) (HPC)
[3] = dose: 200.0 mg/kg/injection, schedule: Q01DX001 (ip), vehicle: Klucel (hydroxypropylcellulose) (HPC)
[4] = dose: 200.0 mg/kg/injection, schedule: Q01DX009 (ip), vehicle: Klucel (hydroxypropylcellulose) (HPC)
[5] = dose: 200.0 mg/kg/injection, schedule: Q04DX003 (ip), vehicle: Klucel (hydroxypropylcellulose) (HPC)
[6] = dose: 400.0 mg/kg/injection, schedule: Q01DX001 (ip), vehicle: Klucel (hydroxypropylcellulose) (HPC)
[7] = dose: 400.0 mg/kg/injection, schedule: Q04DX003 (ip), vehicle: Klucel (hydroxypropylcellulose) (HPC)
[8] = dose: 100.0 mg/kg/injection, schedule: Q04DX003 (ip), vehicle: saline with Tween-80
[9] = dose: 200.0 mg/kg/injection, schedule: Q04DX003 (ip), vehicle: saline with Tween-80
[10] = dose: 400.0 mg/kg/injection, schedule: Q04DX003 (ip), vehicle: saline with Tween-80
[11] = dose: 100.0 mg/kg/injection, schedule: Q04DX003 (ip), vehicle: saline

Measured: T/C

Cc1cc(C)c(S(=O)(=O)C(=O)/C=N/N)c(C)c1
inactive: [1] 96 % of control | [2] 98 % of control | [3] 100 % of control | [4] 91 % of control | [5] 98 % of control | [6] 94 % of control | dose: 400.0 mg/kg/injection, schedule: Q01DX009 (ip), vehicle: Klucel (hydroxypropylcellulose) (HPC) 93 % of control | [7] 96 % of control

Cc1ccc(S(=O)(=O)NC(C)(C)CNc2ncnc(Cl)c2N)cc1
inactive: dose: 9.5 mg/kg/injection, schedule: Q01DX001 (ip), vehicle: other 101 % of control | dose: 19.0 mg/kg/injection, schedule: Q01DX001 (ip), vehicle: other 96 % of control

C/C(=C1\C(=O)Nc2ccccc21)c1ccco1
inactive: [8] 101 % of control | [9] 104 % of control | [10] 104 % of control

CN(Cc1ccccc1)C(=S)[S-].CN(Cc1ccccc1)C(=S)[S-].[Zn]
inactive: dose: 2.5 mg/kg/injection, schedule: Q01DX009 (ip), vehicle: acetone 100 % of control | dose: 5.0 mg/kg/injection, schedule: Q01DX009 (ip), vehicle: acetone 87 % of control | dose: 5.0 mg/kg/injection, schedule: Q04DX003 (ip), vehicle: saline 95 % of control | dose: 10.0 mg/kg/injection, schedule: Q01DX001 (ip), vehicle: saline 91 % of control | dose: 10.0 mg/kg/injection, schedule: Q01DX009 (ip), vehicle: acetone 89 % of control | dose: 10.0 mg/kg/injection, schedule: Q04DX003 (ip), vehicle: saline 92 % of control | dose: 20.0 mg/kg/injection, schedule: Q01DX001 (ip), vehicle: saline 93 % of control | dose: 20.0 mg/kg/injection, schedule: Q04DX003 (ip), vehicle: saline 89 % of control

OCn1c2ccccc2c2ccccc21
inactive: dose: 100.0 mg/kg/injection, schedule: Q01DX001 (ip), vehicle: other 98 % of control | dose: 100.0 mg/kg/injection, schedule: Q04DX002 (ip), vehicle: Klucel (hydroxypropylcellulose) (HPC) 113 % of control | dose: 200.0 mg/kg/injection, schedule: Q01DX001 (ip), vehicle: other 92 % of control | dose: 200.0 mg/kg/injection, schedule: Q04DX002 (ip), vehicle: Klucel (hydroxypropylcellulose) (HPC) 94 % of control | dose: 400.0 mg/kg/injection, schedule: Q01DX001 (ip), vehicle: other 98 % of control | dose: 400.0 mg/kg/injection, schedule: Q04DX002 (ip), vehicle: Klucel (hydroxypropylcellulose) (HPC) 113 % of control

CCN(CC)CCOC(=O)Nc1cccc(Cl)c1
inactive: dose: 25.0 mg/kg/injection, schedule: Q01DX009 (ip), vehicle: saline 100 % of control | dose: 50.0 mg/kg/injection, schedule: Q01DX009 (ip), vehicle: saline 98 % of control | dose: 100.0 mg/kg/injection, schedule: Q01DX009 (ip), vehicle: saline 100 % of control and 109 % of control

CCC1CCCC1=O (stereo not drawn)
inactive: dose: 50.0 mg/kg/injection, schedule: Q01DX001 (ip), vehicle: saline 95 % of control | dose: 200.0 mg/kg/injection, schedule: Q01DX001 (ip), vehicle: saline 90 % of control

CCN(CC)CCOc1ccc(C=Nc2ccc(I)cc2)cc1
inactive: dose: 100.0 mg/kg/injection, schedule: Q04DX003 (ip), vehicle: other 97 % of control | dose: 200.0 mg/kg/injection, schedule: Q04DX003 (ip), vehicle: other 98 % of control | dose: 400.0 mg/kg/injection, schedule: Q04DX003 (ip), vehicle: other 95 % of control

O=C(NC(Cc1ccccc1)C(=O)N1CCCCC1)c1ccccc1 (stereo not drawn)
inactive: dose: 100.0 mg/kg/injection, schedule: Q01DX001 (ip), vehicle: carboxymethylcellulose (CMC) 101 % of control | dose: 200.0 mg/kg/injection, schedule: Q01DX001 (ip), vehicle: carboxymethylcellulose (CMC) 92 % of control | dose: 400.0 mg/kg/injection, schedule: Q01DX001 (ip), vehicle: carboxymethylcellulose (CMC) 90 % of control

COc1ccc(OC(=O)Nc2cc([N+](=O)[O-])ccc2OC)cc1
inactive: dose: 25.0 mg/kg/injection, schedule: Q01DX009 (ip), vehicle: Klucel (hydroxypropylcellulose) (HPC) 89 % of control | dose: 50.0 mg/kg/injection, schedule: Q01DX009 (ip), vehicle: Klucel (hydroxypropylcellulose) (HPC) 96 % of control | dose: 100.0 mg/kg/injection, schedule: Q01DX009 (ip), vehicle: Klucel (hydroxypropylcellulose) (HPC) 88 % of control | [4] 88 % of control

NC(=O)CCl
inactive: dose: 12.5 mg/kg/injection, schedule: Q04DX003 (ip), vehicle: Klucel (hydroxypropylcellulose) (HPC) 92 % of control | dose: 25.0 mg/kg/injection, schedule: Q04DX003 (ip), vehicle: Klucel (hydroxypropylcellulose) (HPC) 95 % of control | dose: 25.0 mg/kg/injection, schedule: Q04DX003 (ip), vehicle: saline 102 % of control | dose: 50.0 mg/kg/injection, schedule: Q04DX003 (ip), vehicle: Klucel (hydroxypropylcellulose) (HPC) 100 % of control | dose: 50.0 mg/kg/injection, schedule: Q04DX003 (ip), vehicle: saline 97 % of control | [2] 101 % of control | [11] 100 % of control

OCC[N+]12CN3CN(CN(C3)C1)C2
inactive: dose: 100.0 mg/kg/injection, schedule: Q04DX002 (ip), vehicle: saline 113 % of control | dose: 200.0 mg/kg/injection, schedule: Q04DX002 (ip), vehicle: saline 106 % of control | dose: 400.0 mg/kg/injection, schedule: Q04DX002 (ip), vehicle: saline 106 % of control

CCOC(=O)C1(C(=O)OCC)CCC(O)N1C(=O)c1cc(OC)c(OC)cc1[N+](=O)[O-] (stereo not drawn)
inactive: [2] 97 % of control | [5] 99 % of control | [7] 97 % of control

O=C(COc1ccc(Cl)c(Cl)c1)NCc1ccncc1
inactive: [1] 93 % of control | [3] 102 % of control | [6] 102 % of control

CC(C)NC(=O)Nc1cccc(Cl)c1
inactive: dose: 100.0 mg/kg/injection, schedule: Q04DX003 (ip), vehicle: gum acacia 96 % of control | dose: 200.0 mg/kg/injection, schedule: Q04DX003 (ip), vehicle: gum acacia 94 % of control | dose: 400.0 mg/kg/injection, schedule: Q04DX003 (ip), vehicle: gum acacia 100 % of control

COC(=O)C(CCC(=O)OC(C)(C)C)NC(=O)C(NC(=O)OCc1ccccc1)C(C)C (stereo not drawn) (Cbz-Val-Glu(OtBu)-OMe; configuration not given here)
inactive: dose: 100.0 mg/kg/injection, schedule: Q01DX009 (ip), vehicle: saline with Tween-80 98 % of control | [8] 92 % of control | dose: 200.0 mg/kg/injection, schedule: Q01DX009 (ip), vehicle: saline with Tween-80 89 % of control | [9] 95 % of control | dose: 400.0 mg/kg/injection, schedule: Q01DX009 (ip), vehicle: saline with Tween-80 98 % of control | [10] 95 % of control

CC[n+]1c(C)sc2cc(Cl)c(-c3ccccc3)cc21
inactive: [11] 98 % of control | dose: 200.0 mg/kg/injection, schedule: Q04DX003 (ip), vehicle: saline 101 % of control | dose: 400.0 mg/kg/injection, schedule: Q04DX003 (ip), vehicle: saline 95 % of control

C=C(C)c1ccc(C)cc1-c1c(OCc2ccccc2)ccc(CCCCC)c1OC
inactive: [1] 97 % of control | [3] 92 % of control | [6] 92 % of control
